{"source": "patent US4925652A", "about": "“Nitroxyl compounds, and diagnostic media based thereon useful for enhancing NmR imaging” (Schering Aktiengesellschaft, priority 1983, dated 1990)", "data": [{"assay": "Acute toxicity (LD50) in mice after intravenous injection into the tail vein, survival after 7 days", "conditions": "in vivo, mouse, i.v. tail vein, pH 7-7.5, survival after 7 days", "description": "Mice weighing 18-22 g were given varying quantities of the compound as a […] aqueous solution per kg, adjusted to pH 7-7.5 by intravenous injection into the tail vein. After 7 days, the survival rate of the mice was determined and, from this value, the LD50 in mmol/kg of animal was calculated in the usual way.\n(J. Comput. Assist. Tomogr. 7, 1983, 184.)", "units": {"LD50 at 168 h": "µmol/kg"}, "values": [{"molecule": "CC1(C)C=C(C(=O)NCC(O)CO)C(C)(C)N1[O]", "note": "(centres unmarked) [Compound 4, 2,2,5,5-Tetramethyl-3-pyrroline-1-oxyl-3-carboxylic Acid (2,3-Dihydroxypropyl)amide]", "LD50 at 168 h": 15000}, {"molecule": "CC1(C)CC(C(=O)O)C(C)(C)N1[O]", "note": "(centres unmarked) [Compound 2, 2,2,5,5-Tetramethylpyrrolidine-1-oxyl-3-carboxylic Acid, reference compound]", "LD50 at 168 h": 10000}, {"molecule": "CC1(C)CC(C(=O)NC(CO)C(O)CO)C(C)(C)N1[O]", "note": "(centres unmarked) [Compound 5, 2,2,5,5-Tetramethylpyrrolidine-1-oxyl-3-carboxylic Acid (1,3,4-Trihydroxybut-2-yl)amide]", "LD50 at 168 h": 25000}, {"molecule": "CC1(C)CC(NC(=O)CCC(=O)O)CC(C)(C)N1[O]", "note": "[Compound 1, Succinic Acid (2,2,6,6-tetramethyl-1-oxylpiperidin-4-yl)-amide, reference compound]", "LD50 at 168 h": 10000}, {"molecule": "CC1(C)C=C(C(=O)NC(CO)C(O)CO)C(C)(C)N1[O]", "note": "(centres unmarked) [Compound 3, 2,2,5,5-Tetramethyl-3-pyrroline-1-oxyl-3-carboxylic Acid (1,3,4-Trihydroxybut-2-yl)amide]", "LD50 at 168 h": 20000}]}]}
